Data on four compounds can be found in article PMC9200282, “GPR15L is an epithelial inflammation-derived pruritogen” (Science Advances, 2022).

One test concerns DRG neurons. Kind of test: Calcium imaging of dissociated DRG neurons expressing GCaMP6f. In kind it is cell-based, mouse. Conditions: chloroquine 100 μM, histamine 100 μM, capsaicin 10 μM, sequential challenge. As to the method:
Primary cultures of DRG neurons were generated from C57BL/6N mice as described previously ([65]). […] Imaging was performed with an ORCA-Flash 4.0 […] digital complementary metal-oxide semiconductor camera (Hamamatsu, Bridgewater, NJ) at 1 Hz. Fluorescence intensity in hand-drawn regions of interest was extracted using HCImage (Hamamatsu) and plotted against time. The R package […] was used to generate a heatmap plot to visualize fluorescence signals in all the neurons.

A further test relates to Mrgpra3 DRG neurons. Kind of test: Whole-cell patch clamp of Mrgpra3-Cre-eGFP DRG neurons. Conditions: chloroquine 100 μM, pH 7.4. In kind it is cell-based, mouse. (In patch-clamp work, channel activity is measured electrically.)
The subject of another test is mast cell. Conditions: through MRGPRs; cited from earlier work. The source says:
In particular, MRGPRX2 and the mouse ortholog Mrgprb2 are receptors for many cationic molecules ([22]–[25]). Activation of MRGPRs on mast cells can cause immunoglobulin E–independent allergic reactions (pseudo-allergy) including extravasation, itch, and pain ([22], [26]). Some human and tick β-defensins can activate not only MRGPRX2/Mrgprb2 but also MRGPRX1/Mrgprc11, which are expressed on sensory neurons ([27]).

Description for Mrgpra3 DRG neurons: Whole-cell patch clamp was performed on Mrgrpa3-Cre-eGFP neurons as previously described ([67]). Briefly, DRG neurons collected from Mrgpra3-Cre-eGFP mice were cultured on coverslips for 48 to 72 hours. Whole-cell current clamp recordings were performed on dissociated DRG neurons expressing eGFP. Data were recorded with an Axon 700B amplifier and pCLAMP 11 software (Molecular Devices, Sunnyvale). Pipette electrodes were pulled with P-97 microelectrode puller (Sutter Instrument) from borosilicate glass (World Precision Instruments Inc.) with resistances of 2 to 4 megohms. The extracellular solution contained 140 mM NaCl, 4 mM KCl, 2 mM CaCl2, 1 mM MgCl2, 10 mM Hepes, and 10 mM glucose with a pH of 7.4 and an osmolality of 300 mosm/kg. The pipette solution contained 140 mM KCl, 1 mM MgCl2, 1 mM EGTA, 10 mM Hepes, 3 mM adenosine 5′-triphosphate, and 0.5 mM guanosine 5′-triphosphate with a pH of 7.4 and an osmolality of 300 mosm/kg.

Turning to `CCN(CC)CCCC(C)Nc1ccnc2cc(Cl)ccc12` (centres unmarked) [chloroquine], the “response of Gpr15l-responsive DRG neurons to other pruritogens/capsaicin” value (shortened to “response … to other pruritogens/capsaicin”) in the test with DRG neurons is “The majority of these neurons also responded”. Also, the “neurons firing action potentials” value with Mrgpra3 DRG neurons is 7/8.

Consider “LL-37: cationic antimicrobial peptide, cathelicidin (LLGDFFRKSKEKIGKEFKRIVQRIKDFLRNLVPRTES; Antibacterial peptide LL-37; UniProt P49913 134-170, looked up)”, for which, in the test on mast cell, the mast cell degranulation result was “can cause mast cell degranulation”.

On to `COc1cc(CNC(=O)CCCC/C=C/C(C)C)ccc1O` [capsaicin], for which the “response … to other pruritogens/capsaicin” value in the test on DRG neurons was “The majority of these neurons also responded”.

In the case of `NCCc1c[nH]cn1` [histamine], in the test with DRG neurons, the “response … to other pruritogens/capsaicin” value is reported as “The majority of these neurons also responded”.
